Common to all, as to assay type: functional, organism-based
In test [1] the test system is Staphylococcus aureus. The test can be described thus: Antimicrobial activity against Staphylococcus aureus assessed as visible growth at 0.25 ug/ml after 24 hrs in presence of 20 uM paraquat.
Test [2] concerns Staphylococcus aureus. Briefly: Antimicrobial activity against Staphylococcus aureus assessed as visible growth at 0.35 ug/ml after 24 hrs.
Test [3] concerns Staphylococcus aureus. Briefly: Antimicrobial activity against Staphylococcus aureus expressing mgrA C12S mutant gene assessed as visible growth at 0.45 ug/ml after 24 hrs in presence of 20 uM paraquat.
The test system of test [4] is Staphylococcus aureus. Briefly: Antimicrobial activity against Staphylococcus aureus expressing mgrA C12S mutant gene assessed as visible growth at 0.55 ug/ml after 24 hrs in presence of 20 uM paraquat.
Test [5] has as its system Staphylococcus aureus. Briefly: Antimicrobial activity against Staphylococcus aureus expressing mgrA C12S mutant gene assessed as visible growth at 0.75 ug/ml after 24 hrs.
The subject of test [6] is Staphylococcus aureus. Briefly: Antimicrobial activity against Staphylococcus aureus expressing mgrA C12S mutant gene harboring Pyj335-His-mgrA assessed as visible growth at 0.20 ug/ml after 24 hrs.
For test [7], the system named is Staphylococcus aureus. Briefly: Antimicrobial activity against Staphylococcus aureus assessed as visible growth at 0.20 ug/ml after 24 hrs in presence of 100 uM hydrogen peroxide.
For test [8], the system named is Staphylococcus aureus. The test can be described thus: Antimicrobial activity against Staphylococcus aureus expressing mgrA C12S mutant gene assessed as visible growth at 0.20 ug/ml after 24 hrs in presence of 25 uM paraquat.
The subject of test [9] is Staphylococcus aureus. Briefly: Antimicrobial activity against Staphylococcus aureus expressing mgrA C12S mutant gene harboring plasmid Pyj335 assessed as visible growth at 0.20 ug/ml after 24 hrs in presence of 25 uM paraquat.
In test [10] the test system is Staphylococcus aureus. Briefly: Antimicrobial activity against Staphylococcus aureus expressing mgrA C12S mutant gene harboring plasmid Pyj335 assessed as visible growth at 0.35 ug/ml after 24 hrs.
Test [11] relates to Staphylococcus aureus. The test can be described thus: Antimicrobial activity against Staphylococcus aureus expressing mgrA C12S mutant gene harboring plasmid Pyj335 assessed as visible growth at 0.45 ug/ml after 24 hrs in presence of 20 uM paraquat.
The subject of test [12] is Staphylococcus aureus. The test can be described thus: Antimicrobial activity against Staphylococcus aureus expressing mgrA C12S mutant gene harboring plasmid Pyj335 assessed as visible growth at 0.55 ug/ml after 24 hrs in presence of 20 uM paraquat.
Test [13] concerns Staphylococcus aureus. The test can be described thus: Antimicrobial activity against Staphylococcus aureus expressing mgrA C12S mutant gene harboring plasmid Pyj335 assessed as visible growth at 0.65 ug/ml after 24 hrs.
In test [14] the test system is Staphylococcus aureus. The test can be described thus: Antimicrobial activity against Staphylococcus aureus expressing mgrA C12S mutant gene harboring Pyj335-His-mgrA assessed as visible growth at 0.25 ug/ml after 24 hrs.
Test [15] deals with Staphylococcus aureus. Briefly: Antimicrobial activity against Staphylococcus aureus expressing mgrA C12S mutant gene harboring Pyj335-His-mgrA assessed as visible growth at 0.45 ug/ml after 24 hrs.
The subject of test [16] is Staphylococcus aureus. The test can be described thus: Antimicrobial activity against Staphylococcus aureus expressing mgrA C12S mutant gene harboring Pyj335-His-mgrA C12S assessed as visible growth at 1.1 ug/ml after 24 hrs.
The test system of test [17] is Staphylococcus aureus. The test can be described thus: Antimicrobial activity against Staphylococcus aureus expressing mgrA C12S mutant gene harboring plasmid Pyj335-His-mgrA assessed as visible growth at 1.1 ug/ml after 24 hrs.
The test system of test [18] is Staphylococcus aureus. The test can be described thus: Antimicrobial activity against Staphylococcus aureus expressing mgrA C12S mutant gene harboring plasmid Pyj335 assessed as visible growth at 1.8 ug/ml after 24 hrs.
Test [19] has as its system Staphylococcus aureus. Briefly: Antimicrobial activity against Staphylococcus aureus expressing mgrA C12S mutant gene harboring plasmid Pyj335 assessed as visible growth at 2.6 ug/ml after 24 hrs in presence of 20 uM paraquat.

In ChEMBL document CHEMBL1240316, “An oxidation-sensing mechanism is used by the global regulator MgrA in Staphylococcus aureus” (2006) one finds Activity data, which are given here for 2 molecules.

Each structure is given as a SMILES string. Calls of active or inactive are those of the source. No cut-off for these calls is given here.

Consider `O=C(O)c1cn(C2CC2)c2cc(N3CCNCC3)c(F)cc2c1=O` [CIPROFLOXACIN], for which the result in the test with Staphylococcus aureus [1], with Staphylococcus aureus [3], in the test with Staphylococcus aureus [4], in the test with Staphylococcus aureus [8], in the test with Staphylococcus aureus [9] and with Staphylococcus aureus [10] was inactive. The result in the test with Staphylococcus aureus [11], in the test with Staphylococcus aureus [12], in the test on Staphylococcus aureus [13] and in the test with Staphylococcus aureus [14] was inactive. Further, the result in the test with Staphylococcus aureus [2], in the test with Staphylococcus aureus [5], in the test with Staphylococcus aureus [6], in the test on Staphylococcus aureus [7] and in the test with Staphylococcus aureus [15] was Active.
Turning to `CN[C@H](CC(C)C)C(=O)N[C@H]1C(=O)N[C@@H](CC(N)=O)C(=O)N[C@H]2C(=O)N[C@H]3C(=O)N[C@H](C(=O)N[C@H](C(=O)O)c4cc(O)cc(O)c4-c4cc3ccc4O)[C@H](O)c3ccc(c(Cl)c3)Oc3cc2cc(c3O[C@@H]2O[C@H](CO)[C@@H](O)[C@H](O)[C@H]2O[C@H]2C[C@](C)(N)[C@H](O)[C@H](C)O2)Oc2ccc(cc2Cl)[C@H]1O` [VANCOMYCIN], the result with Staphylococcus aureus [16], with Staphylococcus aureus [17] and in the test with Staphylococcus aureus [19] was Active. The outcome with Staphylococcus aureus [18] was inactive.
